Experimental data published in patent publication US20080114066A1, “Synergistic Effects Of Docosahexaenoic Acid (DHA) And Carotenoid Absorption Of Cognitive Function” (Trustees of Tufts College, priority 2005, published 2008).

What was measured:
[1] = Serum carotenoids (lutein, zeaxanthin) by HPLC; assay type: in vivo, human; details: after 2 and 4 months of supplementation
Method: Women were randomly assigned to one of four groups: Control (n=10), DHA (n=14, DHA 800 mg/d), lutein (n=12, lutein 12 mg/d), and lutein+DHA (n=14, lutein 12 mg/d; DHA 800 mg/d) (C, D, L, and LD, respectively). The supplement type was randomized. Subjects visited the Jean Mayer USDA Human Nutrition Research Center on Aging at Tufts University on days that supplements were distributed and blood obtained (0 mo-baseline, 2 mo, and 4 mo). Subjects were instructed to take the supplement with a nutritional energy drink (8 oz., Boost®, Mead Johnson Nutritionals) but were otherwise asked to not alter their diets. The diet of each subject was monitored with food frequency questionnaires (Block G, et al., A data-based approach to diet questionnaire design and testing. Am J Epidemiol, 1986. 24: p. 453-469) completed at baseline, 2 months and 4 months to be sure that there were no confounding changes in dietary intake. […] Compliance was by monitored by interview, compliance calendars and capsule count. […] Aliquots of serum are stored at −70° C. until analyzed. […]
Serum carotenoids were extracted and analyzed by HPLC using the method described by Yeum et al. (Yeum, K. J., et al., Am J Clin Nutr, 1996. 64(4): p. 594-602.). […]
Results are expressed as mean ±SE. […]

[2] = background statement; cited from earlier work

Serum concentration of lutein, change from baseline [1]: significantly increased
SMILES: CC1=C[C@H](O)CC(C)(C)[C@H]1/C=C/C(C)=C/C=C/C(C)=C/C=C/C=C(C)/C=C/C=C(C)/C=C/C1=C(C)C[C@@H](O)CC1(C)C [Lutein, lutein]
Share transported in blood on HDL [2]: about 53%
Share transported in blood on LDL [2]: about 31%
Share transported in blood on VLDL [2]: about 16%
